ChEMBL document CHEMBL1201862, “PubChem BioAssay data set” (2004)
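Test compounds were applied to cells in 96-well plates for 48 hours at 5 doses. Abbreviation: GI50, concentration required for 50% inhibition of growth.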 Calls of active or inactive are those of the source. Rule as the data show it: active = GI50 up to about 1.1 µM and inactive = higher.

Tests used:
Test in all cases: NCI-60 cell line screen, 48 h
[1] = system: NCI/ADR-RES
[2] = system: SN12C
[3] = system: NCI-H522
[4] = system: SNB-19
[5] = system: NCI-H23
[6] = system: T47D
[7] = system: HL-60
[8] = system: LOX IMVI
[9] = system: TK-10
[10] = system: K562
[11] = system: SK-OV-3
[12] = system: SNB-75
[13] = system: DU-145
[14] = system: HOP-92
[15] = system: U-251
[16] = system: MDA-MB-435
[17] = system: HCT-116
[18] = system: MDA-MB-231
[19] = system: SF-539
[20] = system: UO-31
[21] = system: MOLT-4
[22] = system: SK-MEL-28
[23] = system: COLO 205
[24] = system: SK-MEL-5
[25] = system: A549
[26] = system: SW-620
[27] = system: Hs-578T
[28] = system: UACC-62
[29] = system: NCI-H460
[30] = system: EKVX
[31] = system: OVCAR-8
[32] = system: RXF 393
[33] = system: OVCAR-3
[34] = system: M14
[35] = system: HT-29
[36] = system: HOP-62
[37] = system: Malme-3M
[38] = system: CCRF-CEM
[39] = system: 786-0
[40] = system: OVCAR-5
[41] = system: IGROV-1
[42] = system: RPMI-8226
[43] = system: SF-268
[44] = system: A498
[45] = system: ACHN
[46] = system: KM12
[47] = system: BT-549
[48] = system: UACC-257
[49] = system: HCT-15
[50] = system: CAKI-1
[51] = system: SK-MEL-2
[52] = system: NCI-H226
[53] = system: SF-295
[54] = system: MDA-N
[55] = system: PC-3
[56] = system: OVCAR-4
[57] = system: SR
[58] = system: MCF7
[59] = system: HCC 2998

Measured: GI50

COC(=O)Cc1c([C@H]2[C@H](CC(=O)OC)c3ccccc3N2C(C)=O)[nH]c2ccccc12
64.3 µM: [49]
inactive: [1] > 100 µM | [2] > 100 µM | [3] 71 µM | [4] > 100 µM | [5] 50.9 µM | [6] > 100 µM | [7] 85.3 µM | [8] > 100 µM | [9] > 100 µM | [10] 50.8 µM | [11] > 100 µM | [12] > 100 µM | [13] > 100 µM | [14] > 100 µM | [15] 91.2 µM | [16] > 100 µM | [17] > 100 µM | [18] > 100 µM | [19] > 100 µM | [20] 39.9 µM | [21] 54.8 µM | [22] > 100 µM | [23] 67.1 µM | [24] > 100 µM | [25] 97.7 µM | [26] > 100 µM | [27] > 100 µM | [28] > 100 µM | [29] 96.8 µM | [30] > 100 µM | [31] > 100 µM | [32] > 100 µM | [33] > 100 µM | [34] > 100 µM | [35] > 100 µM | [36] > 100 µM | [37] > 100 µM | [38] 67.5 µM | [39] > 100 µM | [40] > 100 µM | [41] 34.4 µM | [42] 33.6 µM | [43] > 100 µM | [44] > 100 µM | [45] > 100 µM | [46] > 100 µM | [47] 67.6 µM | [48] > 100 µM | [50] > 100 µM | [51] > 100 µM | [52] > 100 µM | [53] 72.8 µM | [54] > 100 µM | [55] 80 µM

CN1C(=O)C2C(=O)N(Cc3ccccc3)CC(=O)N2c2cccnc21 (configuration not stated)
> 100 µM: [49]
inactive: [1] > 100 µM | [3] > 100 µM | [4] > 100 µM | [5] > 100 µM | [6] > 100 µM | [7] > 100 µM | [8] > 100 µM | [9] > 100 µM | [10] > 100 µM | [11] > 100 µM | [56] > 100 µM | [12] > 100 µM | [57] > 100 µM | [14] > 100 µM | [15] > 100 µM | [16] > 100 µM | [17] > 100 µM | [18] > 100 µM | [19] > 100 µM | [58] > 100 µM | [20] > 100 µM | [21] > 100 µM | [23] > 100 µM | [24] > 100 µM | [25] > 100 µM | [27] > 100 µM | [28] > 100 µM | [29] > 100 µM | [30] > 100 µM | [31] > 100 µM | [32] > 100 µM | [33] > 100 µM | [34] > 100 µM | [35] > 100 µM | [36] > 100 µM | [37] 70.5 µM | [38] > 100 µM | [39] > 100 µM | [40] > 100 µM | [41] > 100 µM | [42] > 100 µM | [43] > 100 µM | [44] > 100 µM | [45] > 100 µM | [46] > 100 µM | [47] > 100 µM | [48] > 100 µM | [50] > 100 µM | [51] > 100 µM | [52] > 100 µM | [53] > 100 µM | [54] > 100 µM | [55] > 100 µM

CCOc1cn(C2CC(O)C(CO)O2)c(=O)[nH]c1=O (configuration not stated)
> 100 µM: [49]
inactive: [1] > 100 µM | [2] > 100 µM | [4] > 100 µM | [5] > 100 µM | [59] > 100 µM | [6] > 100 µM | [7] > 100 µM | [8] > 100 µM | [9] > 100 µM | [11] > 100 µM | [56] > 100 µM | [12] > 100 µM | [13] > 100 µM | [14] > 100 µM | [15] > 100 µM | [16] > 100 µM | [17] > 100 µM | [18] > 100 µM | [58] 45.9 µM | [20] > 100 µM | [21] > 100 µM | [22] > 100 µM | [23] > 100 µM | [24] > 100 µM | [25] > 100 µM | [26] > 100 µM | [27] > 100 µM | [28] > 100 µM | [29] > 100 µM | [30] > 100 µM | [32] > 100 µM | [33] > 100 µM | [34] > 100 µM | [35] > 100 µM | [36] > 100 µM | [37] > 100 µM | [38] > 100 µM | [39] > 100 µM | [40] > 100 µM | [41] > 100 µM | [42] > 100 µM | [43] > 100 µM | [44] 45.8 µM | [45] > 100 µM | [46] > 100 µM | [47] > 100 µM | [48] > 100 µM | [50] > 100 µM | [51] > 100 µM | [52] > 100 µM | [54] > 100 µM | [55] > 100 µM
